According to patent EP1858489B1, “METHODS AND COMPOSITIONS FOR MODIFIED RELEASE OF NUTRITIONAL SUPPLEMENTS” (Mannatech, Inc., priority 2005, dated 2006):
Where “and” joins values, the source holds several entries; their conditions need not be identical. Equal values may be shown once. Entries after “also recorded” stand apart in the source; their conditions may differ.

Assays:
[1] = 37 °C at neutral pH; cited from earlier work
[2] = ORAC(o) assay: oxygen radical absorbance capacity by dissolved oxygen; type: biochemical; set-up: unit not given here; settings: quercetin sample at 10µg/mL
Description: Method of Measuring Antioxidant Activity. In operation, the ORAC(o) assay of the present invention was used to evaluate antioxidant compositions, combinations and the like of solutions against a target molecule (linoleic acid) with oxygen present at equilibrium with the air. A free radical initiator is added and the time it takes for oxygen to disappear is measured, yielding the rate of disappearance. Trolox® is used as the standard, and a blank is run as a control. Amount of dissolved oxygen vs. time is plotted allowing direct comparison of net areas under the curve. A detailed method is as follows: Buffers (K2HPO4 (F.W. 174.2), NaH2PO4 (FW 120.0)) were obtained from Sigma (St. Louis, MO). […] HPLC grade acetone was obtained from Fisher (Hampton, NH). A YSI […] biological oxygen meter was obtained from YSI (Yellow Springs, Ohio) and used according to the manufacturer's specifications. ORAC(o) Method. The following stock solutions were used. […] Weigh 65.33g into 500mL of volumetric flask, and add dH20 to the mark. Concentration is 750 mM. Store 750 mM K2HPO4 stock solution in a refrigerator (2 to 8°C) equipped with a calibrated thermometer. Target temperature is 4°C. 750mM NaH2PO4 (FW 120.0); Weigh 45.00 g into 500 mL of volumetric flask, and add dH20 to the mark. […] Keep covered at room temperature until ready to use. […]

[3] = ORAC(fl) assay (fluorescein, method of Ou et al.); type: biochemical; settings: mixed at different ratios with quercetin; standard acetone:water solution
Description: Prior Art Method of Measuring Antioxidant Activity for Comparison. For the ORAC(fl) assay, the method of Ou et al. (Ou , B., Hampsch-Woodill, M. and Prior, R.L., J. Agric. Food Chem. 2001, 49, 4619-4626) was followed. Differences from the Ou procedure as published included the speed of the orbital shaker (Ou, 400 rpm; herein, 280 rpm), and the centrifuge speed (Ou, 14,000 rpm, 15 min; herein, 3200 rpm, 15 min and the length of the assay (Ou, 30 min; herein, 100 min). Fluorescein, sodium salt, was obtained from Aldrich (Milwaukee, WI). For the Ou method, a standard amount of fluorescein is added to an antioxidant product being tested, and the beginning level of fluorescence is measured. A free radical initiator is added, and the time and degree of disappearance of fluorescence are measured. Trolox®, 6-Hydroxy-2,5,7,8-tetramethylchroman-2-carboxylic Acid, is a cell-permeable, water-soluble derivative of vitamin E with potent antioxidant properties. Trolox® prevents peroxynitrite-mediated oxidative stress and apoptosis in rat thymocytes and is a synthetic antioxidant that is consistent from lot-to-lot and is used as the standard and run for comparison with each sample. A blank (control) used in calculations of the ORAC(o) value for each samples may be included in each run. Fluorescence vs. time is plotted. The blank (control) is subtracted from every curve. […]

## CC(C)(N=NC(C)(C)C(=N)N)C(=N)N.Cl.Cl [AAPH, 2,2' azobis (2-amidinopropane) dihydrochloride]
[1]
  half life: about 175 hours

## O=c1c(O)c(-c2ccc(O)c(O)c2)oc2cc(O)cc(O)c12 [quercetin]
[2]; each day an average of 3 runs, 5 day precision trial
  Area Under Curve (AUC): 202.7 and 212.9 and 187 and 202.9 and 213.1
[2]; single runs of single day precision trial
  Area under curve: 207.4 and 198.2 and 205 and 201.6 and 202.1

## Cc1c(C)c2c(c(C)c1O)CC[C@@](C)(CCC[C@H](C)CCC[C@H](C)CCCC(C)C)O2 [α-tocopherol]
[3]
  contribution of α-tocopherol to AO activity: no contribution to AO activity; also recorded: no statistically significant activity
